“And” between values parts separate entries of the source, which are not always exact repeats. Equal values may be shown once. “Also recorded” adds a separate entry of the source. Read-outs that look alike come from different tables or passages of the source.
What was measured:
[1] = Acute oral toxicity of AF102B in rats; assay type: in vivo, rats (Charles River CD strain)
Description: The test material was prepared at various concentrations in saline and was administered at a constant volume-sosage of 5 ml./kg. Dosages were selected according to the availability of the test material. Mortality and signs of reaction to treatment were recorded during a 14-day period. Early decedents and surviving animals were subjected to necropsy on Day 15.

[2] = molecular target: central muscarinic receptors (M1 and M2); assay type: binding, rat
in vivo [3] = settings: rat, ip
[4] = Morris Swimming Maze in AF64A- and CSF-injected rats; assay type: in vivo, male Sprague Dawley rats; settings: ip
Description: 38 male Sprague Dawley rats (raised by Charles River) 5-6 months old with an average weight of 500 g. were used. The rats were housed in groups of 5 and were given free access to food and water. Testing was carried out in a round white metal tub 1.4 m. diameter and 0.4 m. deep. The tub was filled with water, made opaque by milk powder to the level of 18 cm. A platform of 12 cm. diameter and at a height of 16 cm. was placed in the tub 2 cm. below water level. The platform was covered with gauze to prevent the animal from slipping back into the water after reaching the platform.
Prior to testing, the rat was placed on the platform for 120 secs., placed gently into the water, facing the wall of the pool, at one of four starting locations (north, south, east or west) around the pool's perimeter. Within each block of four trials, each rat was started at each of the four starting locations, with the sequence of starting locations randomly selected. Testing was carried out on 2 consecutive days with each rat submitted daily to eight trials. During trials 1-12 the platform was located in the center of the south-east quadrant and during trials 13-16 the platform was transferred to the center of the north-west quadrant. If in a particular trial the rat found the platform, it was permitted to remain on it for 60 secs. before starting the next trial. […] The latency to find the platform was measured.
For drug testing, rats were injected with AF64A or CSF (3 nmole/2 ul/side) as described in Experiment 2, above. The rats were subjected first to a step-through learning procedure (see Experiment 1, above) and were 3-3.5 months after injection when tested in the water maze. The rats were divided into 4 groups; 18 CSF-injected rats were treated either with physostigmine (0.1 mg./kg. ip) (10 rats) or with saline (8 rats). 20 AF64A-injected rats were divided similarly. The rats were injected with physostigmine immediately before testing on each day.
Forty male Sprague-Dawley rats (obtained from Charles River Breeding Laboratories U.K.), 5-6 months old, weighing 450-580 g. during the experiment served as subjects. Rats were housed in groups of 5 and were given free access to food and water. 2.5-3.5 months before behavioral testing, rats were injected with AF64A (3 nmole/2 ul/side) (20 rats-group 1) or CSF (20 rats-group 2) as described in the surgery procedure.
Each of the injected groups was randomly subdivided into two equal size treatment groups.

[5] = molecular target: central muscarinic receptors (M1) (Rattus norvegicus, UniProt P08482); assay: biochemical; assay type: binding; parameters: IC50^1 :IC50^2: unit not given beside the values
Sequence of central muscarinic receptors (M1) (P08482 whole entry): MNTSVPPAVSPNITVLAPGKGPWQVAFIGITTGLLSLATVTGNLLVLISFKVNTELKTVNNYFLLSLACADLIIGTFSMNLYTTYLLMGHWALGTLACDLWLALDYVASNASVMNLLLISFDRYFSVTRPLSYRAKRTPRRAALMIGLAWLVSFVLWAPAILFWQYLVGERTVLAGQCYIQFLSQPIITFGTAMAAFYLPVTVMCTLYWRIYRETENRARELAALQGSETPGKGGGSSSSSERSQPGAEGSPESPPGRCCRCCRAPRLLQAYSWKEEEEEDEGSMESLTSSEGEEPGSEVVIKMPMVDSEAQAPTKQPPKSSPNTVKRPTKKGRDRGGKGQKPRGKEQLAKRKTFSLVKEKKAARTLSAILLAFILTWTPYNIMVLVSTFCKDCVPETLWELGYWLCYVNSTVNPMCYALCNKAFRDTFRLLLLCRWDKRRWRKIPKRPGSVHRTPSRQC

[6] = assay type: in vivo, mice; settings: for dose level for antinociceptive activity: mouse, in vivo
[7] = parameters: species or system Sprague Dawley rats; settings: rat, in vivo, ip
[8] = parameters: species or system Male Sprague-Dawley rats; settings: rat, in vivo
in vivo [9] = settings: mouse, iv
in vivo [10] = settings: mouse, po
[11] = Tremor induced by AF102B, mice; assay type: in vivo; settings: ip
Source text: (§1) rats; these effects are observed around the toxic doses of the compound

[12] = system: Salmonella typhimurium, strains TA-15365, TA-100, TA1538, TA-98 and TA-1537; assay: Mutagenic activity (pour-plate assays)
[13] = Tremor induced by AF102B, rats; assay type: in vivo
Source text: as §1

[14] = mice
[15] = Acute toxicity in mice, ip; assay type: in vivo; settings: 80 mg./kg.
Guinea-pig ileum [16] = assay: Guinea-pig ileum induced contractions; settings: ileum contraction
[17] = rats, ip
[18] = Hypothermia-inducing activity in rats
Guinea-pig ileum [19] = assay: Guinea-pig ileum induced contractions
Source text: Guinea-pig ileum induced contractions
*This dose is the IC50 for inhibiting acetylcholineinduced
contractions of the ileum.

[20] = oxotremorine 0.5 mg./kg., ip; cited from earlier work
[21] = mouse, icv; cited from earlier work
[22] = oxotremorine 0.5 mg./kg., ip; cited from earlier work; remark: listed apart in the source

In the case of `C[C@H]1O[C@]2(CS1)CN1CCC2CC1` (relative stereo) [AF102B], the deaths ([1]; oral) is reported as “deaths occurred at all four dose-levels studied, within three hours 30 minutes after dosing”, the necropsy observations ([1]; oral) is reported as “a single case of haemorrhagic contents and occasional congested gastric mucosa was observed; also recorded: Necropsy of surviving animals did not reveal any abnormalities” and the “principal signs of reaction to treatment” value ([1]; oral) is reported as “clonic convulsions, tremor, salivation, urogenital staining, diarrhoea and pigmented orbital secretion”. The “recovery and bodyweight of surviving animals” value ([1]; oral) was “all clinical signs of reaction to treatment were resolved by twenty four hours after dosing; also recorded: Surviving animals generally made expected bodyweight gains”, the LD50 at 336 h ([1]; rat, in vivo, po) was greater than 156 mg/kg and the IC50 ([2]; read-out: IC50^2 for displacement of [^3 H]-QNB) was 10 µM. For the same molecule, the EC50 ([2]; summary table, read-out: EC50, [^3 H]--QNB-binding) was 10 µM, the LD50 at 336 h (in vivo [3]; LD50 (95% C.L.), rats) was 77.6 mg/kg and the LD50 at 336 h (in vivo [3]; LD50, rats) was 77.6 mg/kg. For the same molecule, the “effect in Morris Swimming Maze” value ([4]; AF102B 1 mg./kg., physostigmine 0.1 mg./kg.) was “counteracted; also recorded: reverses memory impairments in AF64A-treated rats; also recorded: definitely improved the memory deficits induced by AF64A; also recorded: significant decrease in escape latency”, the “effective dose, Morris Swimming Maze” value ([4]; AF64A rats) was 1 mg/kg and the EC50 [5] was 0.4 µM. The IC50 [5] was 0.4 µM, the “IC50^1 :IC50^2” value ([5]; PNZ:QNB displacement ratio) was 0.04 and the “antinociceptive effect at highest non-lethal doses” value ([6]; mice, 60 mg./kg. p.o. and 40 mg./kg. i.p., vs codeine phosphate and oxotremorine) was “not fully developed at 60 mg./kg. p.o. and 40 mg./kg. i.p; also recorded: remained obviously weaker than those of codeine phosphate and oxotremorine”. For the same molecule, the “dose level for antinociceptive activity” value ([6]; ip) was greater than 10 mg/kg, the “dose level for antinociceptive activity” value ([6]; po) was “greater than 20 mg./kg” and the “onset of action following per os administration” value ([6]; po, analgesia, hypothermia and lethal dose level tests) was 10 to 15 min. The “effect in 8-Arm Radial Maze” value [7] was “counteracted; also recorded: reverses memory impairments in AF64A-treated rats; also recorded: improves AF64A-induced memory impairments; also recorded: significant (p<0.001, F=17.5) decrease in the mean number of errors; also recorded: improved performance only when rats were previously injected icv with AF64A; also recorded: memory impairment could be reversed”, the “effective dose, 8-Arm Radial Maze” value [7] was 5 mg/kg and the duration of action [8] was “very long beneficial effect; also recorded: long duration of action”. The “retention latency during extinction+latent extinction” value [8] was “No significant differences”, the “reversal of AF64A-induced memory impairments in passive avoidance” value [8] was “could be reversed; also recorded: reverses memory impairments in AF64A-treated rats” and the Initial latency ([8]; ip) was 16.71 ± 4.77 s and 11.86 ± 1.23 s and 19.71 ± 5.39 s. For the same molecule, the Initial-test latency ([8]; ip) was 18.40 ± 3.74 s and 15.30 ± 2.83 s, the Retention-test latency ([8]; ip) was 330.57 ± 75.55 s and 348.14 s and 551.71 s and 514.10 ± 38.21 s and 447.60 ± 58.09 s and the “retention latency during extinction” value ([8]; ip) was “significantly longer, F(1,36)=31.45, p<0.01; also recorded: significantly improved; also recorded: increased from the first to the fourth trial and then decreased”. For the same molecule, the “retention-test differences between doses” value ([8]; ip) was “no significant differences were found during the 24 hr. retention-test between the different doses of AF102B”, the Retention-test latency ([8]; po) was 524.55 ± 45.60 s and 600 s and the “retention of passive avoidance (statistics)” value ([8]; po) was “significantly longer [F(1,35)=28.46; p<0.001]; also recorded: significantly improved; also recorded: no significant difference between the AF102B-treated-CSF-injected group and the saline-treated-CSF-injected group; also recorded: significantly longer [F(1,18)=65.71; p<0.001]; also recorded: that of the CSF-injected group did not significantly change”. For the same molecule, the Mortality (mice, 64 mg./kg. per os) was 0/5, the Mortality (mice, 71 mg./kg. per os) was 0/5 and the Mortality (mice, 80 mg./kg. per os) was 2/5. The Mortality (mice, 90 mg./kg. per os) was 2/5, the Mortality (mice, 101 mg./kg. per os) was 3/5 and the Mortality (mice, 113 mg./kg. per os) was 4/5. The “absorption by the enteric route” value (mice, inferred from i.v./oral LD50 ratio) was “efficient, rapid and apparently unaltered absorption”, the “LD50 (95% C.I.)” value (mice, oral) was 92(74-116) mg./kg and the “Signs in reaction to treatment” value (mouse, in vivo) was “slightly enhanced intensity”. For the same molecule, the “effects considered characteristic of parasympatho- or cholinomimetic activity” value (mouse, in vivo) was “none of the test animals exhibited effects considered characteristic of parasympatho- or cholinomimetic activity”, the LD50 (in vivo [9]) was 33 mg/kg and the LD50 (in vivo [10]) was 92 mg/kg. The tremor-inducing dose [11] was 60 to 80 mg/kg, the inhibition of growth ([12]; 1000 ug. per plate) was “No inhibition of growth” and the “mutagenic activity (reversion to prototrophy)” value ([12]; five strains, presence or absence of S-9 mix) was “No increases in reversion to prototrophy; also recorded: devoid of mutagenic activity; also recorded: not mutagenic up to high concentrations”. The tremor-inducing dose ([13]; ip) was greater than 78 mg/kg, the tremor-inducing dose ([13]; po) was greater than 100 mg/kg and the Mortality ([14]; 31 mg./kg. i.v.) was 3/6. For the same molecule, the Mortality ([14]; 33 mg./kg. i.v.) was 1/6, the Mortality ([14]; 35 mg./kg. i.v.) was 5/6 and the Mortality ([14]; 37 mg./kg. i.v.) was 6/6. For the same molecule, the Mortality ([14]; 39 mg./kg. i.v.) was 6/6, the “LD50 (95% C.I.)” value ([14]; intravenous) was 33(31-35) mg./kg and the death of mice [15] was “All mice died”. For the same molecule, the EC50 (Guinea-pig ileum [16]) was 4 µM, the “principal signs of reaction to treatment” value [17] was “spastic and tonic convulsions, tremors, tachypnoea and dyspnoea, decreased motor activity, slight to very strong salivation and urination” and the deaths ([17]; 20.0-187.0 mg./kg.) was “deaths occurred at the three highest dose levels (61, 107, 187 mg./kg.), within twenty minutes after dosing”. For the same molecule, the slope ([17]; acute toxicity curve) was 83 °, the LD50 ([17]; 20160 min) was 78 mg/kg and the cholinomimetic manifestation ([18]; AF102B at 80 mg./kg. p.o. and 60 mg./kg. i.p., oxotremorine 3.2 mg./kg. p.o. or 1.2 mg./kg. i.p.) was “Slight diarrhea was the single cholinomimetic manifestation”. For the same molecule, the “dose level for hypothermia inducing activity” value ([18]; i.p.) was greater than 15 mg/kg, the “dose level for hypothermia inducing activity” value ([18]; p.o.) was “greater than 40 mg./kg” and the “muscarinic agonist activity (TABLES 1 and 2)” value (Guinea-pig ileum [19]; binding and ileum) was “potent muscarinic agonist”. For the same molecule, the Type of activity (Guinea-pig ileum [19]; guinea-pig ileum) was “agonist”.

In the case of `CN1CCN(CC(=O)N2c3ccccc3C(=O)Nc3cccnc32)CC1` [PNZ, pirenzepine], the “dose required to reduce the effect of oxotremorine by 50%, tremor” value [20] is listed as 5.8 ug/mouse, icv, the “minimum effective dose producing impaired passive avoidance learning” value [21] is listed as 0.1 ug/mouse, icv and the “dose required to reduce the effect of oxotremorine by 50%, antinociception” value [22] is listed as 4.6 ug/mouse, icv.
